The results in this text go back to patent US20070105840A1, “Pyrrolo-dihydroisoquinoline derivatives as pde10 inhibitors” (Altana Pharma AG, priority 2003, published 2007).

The structures appear in SMILES notation.

Molecule `CCOC(=O)c1c(-c2cc(C)c(O)c(C)c2)c(C)n2c1-c1cc(OC)c(OC)cc1CC2C` (racemic) [Example 5, (5RS)-(4-Hydroxy-3,5-dimethyl-phenyl)-8,9-dimethoxy-3,5-dimethyl-5,6-dihydro-pyrrolo[2,1-a]isoquinoline-1-carboxylic acid ethyl ester] gave a melting point of 158 to 161 °C.
For `CCOC(=O)c1c(-c2cc(C)c(O)c(C)c2)c(C)n2c1-c1cc(OC)c(OC)cc1CC2CC` (racemic) [Example 6, (5RS)-5-Ethyl-2-(4-hydroxy-3,5-dimethyl-phenyl)-8,9-dimethoxy-3-methyl-5,6-dihydro-pyrrolo[2,1-a]isoquinoline-1-carboxylic acid ethyl ester] the value was 164 to 166 °C.
On to `CCOC(=O)c1c(-c2cc(C)c(O)c(C)c2)c(CC)n2c1-c1cc(OC)c(OC)cc1CC2C` (racemic) [Example 9, (5RS)-3-Ethyl-2-(4-hydroxy-3,5-dimethyl-phenyl)-8,9-dimethoxy-5-methyl-5,6-dihydro-pyrrolo[2,1-a]isoquinoline-1-carboxylic acid ethyl ester], for which the melting point is 188 to 190 °C.
As for `CCOC(=O)c1c(-c2cc(OC)c(OC)c(OC)c2)c(C)n2c1-c1cc(OC)c(OC)cc1CC2C` (racemic) [Example 10, (5RS)-8,9-Dimethoxy-3,5-dimethyl-2-(3,4,5-trimethoxy-phenyl)-5,6-dihydro-pyrrolo[2,1-a]isoquinoline-1-carboxylic acid ethyl ester], the figure is 116 to 118 °C.
In turn, `CCOC(=O)c1c(-c2cccc3ccccc23)c(C)n2c1-c1cc(OC)c(OC)cc1CC2C` (racemic) [Example 11, (5RS)-8,9-Dimethoxy-3,5-dimethyl-2-naphthalen-1-yl-5,6-dihydro-pyrrolo[2,1-a]isoquinoline-1-carboxylic acid ethyl ester] had a melting point of 184 °C.
`CCOC(=O)c1c(-c2cccc3ccccc23)c(CCC(=O)OC)n2c1-c1cc(OC)c(OC)cc1CC2C` (racemic) [Example 20, (5RS)-8,9-Dimethoxy-3-(2-methoxycarbonyl-ethyl)-5-methyl-2-naphthalen-1-yl-5,6-dihydro-pyrrolo[2,1-a]isoquinoline-1-carboxylic acid ethyl ester] had a melting point of 56 to 59 °C.
As for `CCOC(=O)c1c(-c2cc(C)c(O)c(C)c2)c(C)n2c1-c1cc(OC)c(OC)cc1C1CCCCC12` (stereo not drawn) [Example 8, (4aRS,8aRS)-cis-2-(4-hydroxy-3,5-dimethyl-phenyl)-10,11-dimethoxy-3-methyl-4a,5,6,7,8,8a-hexahydro-pyrrolo[2,1-f]phenanthridine-1-carboxylic acid ethyl ester], the figure is 186 to 192 °C; as for `CCOC(=O)c1c(-c2cccc3ccccc23)c(C)n2c1-c1cc(OC)c(OC)cc1C1CCCCC12` (stereo not drawn) [Example 12, (4aRS,8aRS)-cis-10,11-Dimethoxy-3-methyl-2-naphthalen-1-yl-4a,5,6,7,8,8a-hexahydro-pyrrolo[2,1-f]phenanthridine-1-carboxylic acid ethyl ester], 189 to 191 °C; as for `CCOC(=O)c1c(-c2ccnc3ccccc23)c(C)n2c1-c1cc(OC)c(OC)cc1C1CCCCC12` (stereo not drawn) [Example 13, (4aRS,8aRS)-cis-10,11-Dimethoxy-3-methyl-2-quinolin-4-yl-4a,5,6,7,8,8a-hexahydro-pyrrolo[2,1-f]phenanthridine-1-carboxylic acid ethyl ester], 153 to 157 °C.
`CCOC(=O)c1c(-c2cc(C)c(O)c(C)c2)c(C)n2c1-c1cc(OC)c(OC)c(OC)c1CC2C` (stereo not drawn) [Example 18, (5RS)-2-(4-Hydroxy-3,5-dimethyl-phenyl)-7,8,9-bimethoxy-3,5-dimethyl-5,6-dihydro-pyrrolo[2,1-a]isoquinoline-1-carboxylic acid ethyl ester] showed a melting point of 144 °C.
Consider `COc1cc2c(cc1OC)-c1c(C#N)c(-c3cccc4ccccc34)c(C)n1CC2` [Example 22, 8,9-Dimethoxy-3-methyl-2-naphthalen-1-yl-5,6-dihydro-pyrrolo[2,1-a]isoquinoline-1-carbonitrile], for which the melting point was in the range of 226 to 229 °C.
In turn, `COc1cc2c(cc1OC)-c1c(C#N)c(-c3ccnc4ccccc34)c(C)n1CC2` [Example 23, 8,9-Dimethoxy-3-methyl-2-quinolin-4yl-5,6-dihydro-pyrrolo[2,1-a]isoquinoline-1-carbonitrile] came in with a melting point of 239 to 243 °C.
With `COc1cc2c(cc1OC)-c1c(C#N)c(-c3c[nH]c4ccccc34)c(C)n1CC2` [Example 24, 2-(1H-indol-3-yl)-8,9-dimethoxy-3-methyl-5,6-dihydro-pyrrolo[2,1-a]isoquinoline-1-carbonitrile], the melting point lay within 304 to 307 °C.
For `COc1cc2c(cc1OC)-c1c(C#N)c(-c3cc(C(C)(C)C)c(O)c(C(C)(C)C)c3)c(C)n1CC2` [Example 25, 2-(3,5-Di-tert-butyl-4-hydroxy-phenyl)-8,9-dimethoxy-3-methyl-5,6-dihydro-pyrrolo[2,1-a]isoquinoline-1-carbonitrile] the value was 250 to 252 °C; for `COc1cc2c(cc1OC)-c1c(C#N)c(-c3ccncc3)c(C)n1C(C)C2` (stereo not drawn) [Example 26, 8,9-Dimethoxy-3,5-dimethyl-2-pyridin-4-5,6-dihydro-pyrrolo[2,1-a]isoquinoline-1-carbonitrile], 253 to 254 °C; for `COC(=O)CCc1c(-c2cc(C)c(O)c(C)c2)c(C#N)c2n1C(C)Cc1cc(OC)c(OC)cc1-2` (stereo not drawn) [Example 27, 3-[1-Cyano-2-(4-hydroxy-3,5-dimethyl)-8,9-dimethoxy-5-methyl-5,6-dihydro-pyrrolo[2,1-a]isoquinolin-3-yl]-propionic acid methyl ester], 208 to 209 °C.
`COc1cc2c(cc1OC)-c1c(C#N)c(-c3cc(C)c(O)c(C)c3)c(C)n1C(C)C2` (stereo not drawn) [Example 28, 2-(4-Hydroxy-3,5-dimethyl-phenyl)-8,9-dimethoxy-3,5-dimethy-5,6-dihydro-pyrrolo[2,1-a]isoquinoline-1-carbonitrile] registered a melting point of 268 to 270 °C.
`COC(=O)CCc1c(-c2ccncc2)c(C#N)c2n1CCc1cc(OC)c(OC)cc1-2` [Example 29, 3-(1-Cyano-8,9-dimethoxy-2-pyridin-4-yl-5,6-dihydro-pyrrolo[2,1-a]isoquinolin-3-yl)-propionic acid methyl ester] yielded a melting point of 191 to 193 °C.
In turn, `COc1cc2c(c(F)c1OC)CC(C)n1c(C)c(-c3cc(C)c(O)c(C)c3)c(C#N)c1-2` (stereo not drawn) [Example 30, 7-Fluoro-2-(4-hydroxy-3,5-dimethyl-phenyl)-8,9-dimethoxy-3,5-dimethyl-5,6-dihydro-pyrrolo[2,1-a]isoquinoline-1-carbonitrile] showed a melting point of 166 to 168 °C.
`COC(=O)CCc1c(-c2ccnc3ccccc23)c(C#N)c2n1CCc1cc(OC)c(OC)cc1-2` [Example 31, 3-(1-Cyano-8,9-dimethoxy-2-quinolin-4-yl-5,6dihydro-pyrrolo[2,1-a]isoquinolin-3-yl)-propionic acid methyl ester] had a melting point of 232 to 234 °C.
For `COC(=O)CCc1c(-c2cc(C)c(O)c(C)c2)c(C#N)c2n1CCc1cc(OC)c(OC)cc1-2` [Example 32, 3-[1-Cyano-2-(4-hydroxy-3,5-dimethyl-phenyl)-8,9-dimethoxy-5,6-dihydro-pyrrolo[2,1-a]isoquinolin-3-yl]-propionic acid methyl ester] the value was 217 to 219 °C; for `COc1cc2c(cc1OC)-c1c(C#N)c(-c3cn(S(C)(=O)=O)c4ccccc34)c(C)n1C(C)C2` (stereo not drawn) [Example 40, 2-(1-Methanesulfonyl-1H-indol-3-yl)-8,9-dimethoxy-3,5-dimethyl-5,6-dihydro-pyrrolo[2,1-a]isoquinoline-1-carbonitrile], 219 to 221 °C; for `COc1cc2c(cc1OC)-c1c(C#N)c(-c3cc[n+]([O-])cc3)c(C)n1C(C)C2` (stereo not drawn) [Example 41, 8,9-Dimethoxy-3,5-dimethyl-2-(1-oxy-pyridin-4-yl)-5,6-dihydro-pyrolo[2,1-a]isoquinoline-1-carbonitrile], 279 to 282 °C.
Molecule `COc1cc2c(cc1OC)-c1c(C#N)c(-c3cc(C)c(O)c(C)c3)c(CN3CCOCC3)n1C(C)C2` (stereo not drawn) [Example 44, 2-(4-Hydroxy-3,5-dimethyl-phenyl)-8,9-dimethoxy-5-methyl-3-morpholin-4-ylmethyl-5,6-dihydro-pyrrolo[2,1-a]isoquinoline-1-carbonitrile] came in with a melting point of 228 to 230 °C.
As for `COc1cc2c(cc1OC)-c1c(C#N)c(-c3ccnc(C)c3)c(C)n1C(C)C2` (stereo not drawn) [Example 45], the melting point lay in the range of 187 to 189 °C.
As for `COc1cc2c(cc1OC)-c1c(C#N)c(-c3ccc([N+](=O)[O-])cc3)c(C)n1C(C)C2` (stereo not drawn) [Example 46, 8,9-Dimethoxy-3,5-dimethyl-2-(4-nitro-phenyl)-5,6-dihydro-pyrrolo[2,1-a]isoquinoline-1-carbonitrile], the figure is 206 to 207 °C.
In the case of `COc1cc2c(cc1OC)-c1c(C#N)c(-c3ccc(C(=O)O)cc3)c(C)n1C(C)C2` (stereo not drawn) [Example 47, 4-(1-Cyano-8,9-dimethoxy-3,5-dimethyl-5,6-dihydro-pyrrolo[2,1-a]isoquinolin-2-yl)-benzoic acid], the melting point fell in the range of 287 to 289 °C.
`COc1cc2c(cc1OC)-c1c(C#N)c(-c3ccc(N)cc3)c(C)n1C(C)C2` (stereo not drawn) [Example 48, 2-(4-Amino-phenyl)-8,9-dimethoxy-3,5-dimethyl-5,6-dihydm-pyrrolo[2,1-a]isoquinoline-1-carbonitrile] displayed a melting point of 237 to 239 °C.
Turning to `COc1cc2c(cc1OC)-c1c(C#N)c(-c3ccncc3C)c(C)n1C(C)C2` (stereo not drawn) [Example 49, 8,9-Dimethoxy-3,5-dimethyl-2-(3-methyl-pyridin-4-yl)-5,6-dihydro-pyrrolo[2,1-a]isoquinoline-1-carbonitrile], the melting point fell in the range of 232 to 233 °C.
`CCOc1cc2c(cc1OC)-c1c(C#N)c(-c3ccc(C(=O)O)cc3)c(C)n1C(C)C2` (stereo not drawn) [Example 50, 4-(1-Cyano-8-ethoxy-9-methoxy-3,5-dimethyl-5,6-dihydro-pyrrolo[2,1-a]isoquinolin-2-yl)-benzoic acid] yielded a melting point of 274 to 277 °C.

Usually melting point stands for the temperature, or range, at which the solid turns liquid.
